Measured values from patent US20250352500A1, “USE OF PHENOLIC ACIDS DERIVATIVES IN TREATING ISCHEMIC STROKE” (LANZHOU UNIVERSITY, priority 2022, published 2025).

Assays:
Type in all cases: in vivo, male C57/BL mice
MCAO model mice = test: Rotating rod (balance rod) test of motor coordination after ischemia-reperfusion
Protocol: (§1) Grouping and administration method: Male C57/BL mice weighing 23±1 g were randomly divided into sham operation group (SHAM), model group (MCAO), compound 2 group (100 mg/kg), and compound 1 group (50 mg/kg), with 10 mice in each group. Mice in the SHAM group underwent vascular isolation, but no […] was administered, and no treatment was given before or after surgery. The model group mice were constructed with MCAO models and were not treated before and after surgery. The treatment group was treated with compound 2 or compound 1 on the basis of the model group. Mice with a neurological score of 0 after reperfusion and those that died before 72 hours post-surgery were excluded. The administration time for animal behavior tests was seven times at 0 h, 1 day, 2 days, 3 days, 4 days, 5 days, and 6 days after reperfusion, while the administration time for other experiments was three times at 0 h, 1 day, and 2 days after reperfusion. The drug was administered through the tail vein, and the sham operation group and model group were given equal amounts of saline.
The balance rod test was used to test the motor coordination of mice. The experiment was divided into four groups: sham operation group (SHAM), model group (MCAO), compound 2 group and compound 1 group. The effects of compound 2 on the recovery of behavioral function in mice after ischemia-reperfusion were comprehensively analyzed. The rotating rod test can test the motor coordination ability of mice. The experimental procedure is set to gradually accelerate the speed of the rotating rod from 10 rpm to 40 rpm within 300 seconds. Record the time that the mouse stays on the rotating stick. The mice were trained 3 days in advance. Select mice that can stay on the rotating rod for about 300 seconds for the next experiment. The time that the mice spent on the rotating rod before the model was constructed was selected as the pre-operative test value. The trained mice were subjected to MCA occlusion for 60 minutes and then reperfusion. Mice in the SHAM group, MCAO group, Compound 2 group, and Compound 1 group underwent rotating rod testing on days 1, 3, 5, and 7 post-surgeries, respectively, and the duration of their stay on the rotating rod was recorded.
After reperfusion for 1 to 3 days, the motor coordination ability continued to decline, but gradually recovered after 3 days, but the degree of recovery was extremely low.

GFAP = GFAP immunofluorescence in brain tissue (astrocytes); settings: 72 h ischemia-reperfusion, three days of administration; compound 2 100 mg/kg, compound 1 50 mg/kg; MCAO group 481±67; mean±SEM, n=3
Protocol: as §1, with “The administration time for animal behavior tests was seven times at 0 h, 1 day, 2 days, 3 days, 4 days, 5 days, and 6 days after reperfusion, while the administration time for other experiments was three times at 0 h, 1 day, and 2 days after reperfusion. The drug was administered through the tail vein, and the sham operation group and model group were given equal amounts of saline.” left out
To investigate whether compound 2 has an effect on the activation and proliferation of astrocytes during ischemia-reperfusion, this study used immunofluorescence experiments to observe and detect the fluorescence expression of GFAP in brain tissues from the sham operation group, model group, compound 2 group, and compound 1 group. […] After 72 hours of ischemia-reperfusion, the activation and proliferation of GFAP protein in astrocytes in the brain region were analyzed by immunofluorescence staining. […]

iNOS = test: RT-qPCR of iNOS mRNA in brain tissue; settings: 72 h, three days of administration, compound 2 100 mg/kg, compound 1 50 mg/kg, P<0.05
Protocol: as §1, with “The administration time for animal behavior tests was seven times at 0 h, 1 day, 2 days, 3 days, 4 days, 5 days, and 6 days after reperfusion, while the administration time for other experiments was three times at 0 h, 1 day, and 2 days after reperfusion. The drug was administered through the tail vein, and the sham operation group and model group were given equal amounts of saline.” left out
(§2) To investigate the effect of compounds on the expression of inflammatory factors after ischemia-reperfusion, this study used immunofluorescence experiments to observe the expression of TNF-α, IL-1β, IL-6, iNOS, and COX2 proteins in brain tissue. […] The concentrations of TNF-α, IL-1β, and IL-6 in brain homogenate were detected by enzyme-linked immunosorbent assay (ELISA), and the expression level of TNF-α protein in brain tissue was detected by Western blot.
After 72 hours of ischemia-reperfusion, the mRNA expression levels of TNF-α, IL-1β, IL-6, iNOS, and COX2 in brain tissue were detected and analyzed by RT-qPCR. […]

TNF-α = test: ELISA of TNF-α in brain homogenate; settings: 72 h, three days of administration, compound 2 100 mg/kg, compound 1 50 mg/kg
Protocol: as §1, with “The administration time for animal behavior tests was seven times at 0 h, 1 day, 2 days, 3 days, 4 days, 5 days, and 6 days after reperfusion, while the administration time for other experiments was three times at 0 h, 1 day, and 2 days after reperfusion. The drug was administered through the tail vein, and the sham operation group and model group were given equal amounts of saline.” left out
as §2
(§3) After 72 hours of ischemia-reperfusion, the expression levels of inflammatory factors TNF-α, IL-1β, and IL-6 in the mouse brain homogenate were detected.

IL-1β = test: ELISA of IL-1β in brain homogenate; settings: 72 h, three days of administration, compound 2 100 mg/kg, compound 1 50 mg/kg
Protocol: as §1, with “The administration time for animal behavior tests was seven times at 0 h, 1 day, 2 days, 3 days, 4 days, 5 days, and 6 days after reperfusion, while the administration time for other experiments was three times at 0 h, 1 day, and 2 days after reperfusion. The drug was administered through the tail vein, and the sham operation group and model group were given equal amounts of saline.” left out
as §2, §3

HIF-1α = test: RT-qPCR of HIF-1α mRNA in brain tissue; settings: 72 h; for HIF-1α mRNA expression level reduced compared with MCAO group: three days of administration, compound 2 100 mg/kg, compound 1 50 mg/kg
Protocol: as §1
HIF-1α is a sensitive regulator of oxygen homeostasis, rapidly inducing its expression after hypoxia-ischemia. It plays a wide range of roles in the pathophysiology of stroke, including neuronal survival, neuroinflammation, angiogenesis, glucose metabolism, and blood-brain barrier regulation. It can not only produce specific sensations in the case of hypoxia, but also facilitate the maintenance of oxygen homeostasis in the body. […]
After 72 hours of ischemia-reperfusion, the mRNA expression level of HIF-1α in brain tissue was detected and analyzed by RT-qPCR. […] Compared with the compound 1 group, the expression level of HIF-1α in the compound 2 group decreased by 53±11% (P<0.001). n=3, data are presented as mean±SEM, analyzed using one-way ANOVA, and subjected to Tukey's HSD test. *P<0.05, **P<0.01, ***P<0.001. ^#P<0.05, ^##P<0.01, ^###P<0.001. * indicates a comparison with the SHAM group, indicates a comparison with the Compound 2 group.

[1] = compound 2 100 mg/kg vs compound 1 50 mg/kg, P<0.001

SMILES	Motor coordination ability (time on rotating rod) compared with MCAO group (MCAO model mice; compound 1 50 mg/kg tail vein, time not stated)	Number of GFAP-positive cells (GFAP)	iNOS mRNA expression compared with MCAO group (iNOS)	Decrease in TNF-α expression compared with MCAO group (TNF-α)	Decrease in IL-1β expression compared with MCAO group (IL-1β)	HIF-1α mRNA expression level reduced compared with MCAO group (HIF-1α) [%]	Motor coordination ability (time on rotating rod) compared with model group (MCAO) (MCAO model mice; at 5 and 7 days, compound 2 100 mg/kg tail vein, P<0.05)	Motor coordination (time on rotating rod) compared with model group (MCAO) (MCAO model mice; at 7 days of reperfusion, compound 2 100 mg/kg tail vein, P<0.001)	Motor coordination ability (time on rotating rod) compared with the compound 1 group (MCAO model mice; [1])	HIF-1α mRNA expression level decreased compared with the compound 1 group (HIF-1α; [1]) [%]
O=C(O)c1cc(O)ccc1O [compound 1]	improved	327±50 /mm^2	significantly reduced	reduced to varying degrees	reduced to varying degrees	41±13	–	–	–	–
O=C(O)c1cc(OP(=O)(O)O)ccc1OP(=O)(O)O [compound 2]	–	195±45 /mm^2	significantly reduced	40±10%	32±9%	75±17	significantly improved	significantly improved	significantly improved	53±11
